Blank lines part the entries; values can stand above or below the molecule they belong to.
Experiments:
[1] = molecular target: T1, human recombinant MMP-2 (Homo sapiens, UniProt P08253); test: Measurement of the activity of metalloproteinase MMP-2 (DQ-gelatin fluorescence); type: biochemical; details: incubation concentration 0.0018 % DE; relative to the control
T1 construct: purchased CALBIOCHEM PF023
T1 sequence (P08253 110-660): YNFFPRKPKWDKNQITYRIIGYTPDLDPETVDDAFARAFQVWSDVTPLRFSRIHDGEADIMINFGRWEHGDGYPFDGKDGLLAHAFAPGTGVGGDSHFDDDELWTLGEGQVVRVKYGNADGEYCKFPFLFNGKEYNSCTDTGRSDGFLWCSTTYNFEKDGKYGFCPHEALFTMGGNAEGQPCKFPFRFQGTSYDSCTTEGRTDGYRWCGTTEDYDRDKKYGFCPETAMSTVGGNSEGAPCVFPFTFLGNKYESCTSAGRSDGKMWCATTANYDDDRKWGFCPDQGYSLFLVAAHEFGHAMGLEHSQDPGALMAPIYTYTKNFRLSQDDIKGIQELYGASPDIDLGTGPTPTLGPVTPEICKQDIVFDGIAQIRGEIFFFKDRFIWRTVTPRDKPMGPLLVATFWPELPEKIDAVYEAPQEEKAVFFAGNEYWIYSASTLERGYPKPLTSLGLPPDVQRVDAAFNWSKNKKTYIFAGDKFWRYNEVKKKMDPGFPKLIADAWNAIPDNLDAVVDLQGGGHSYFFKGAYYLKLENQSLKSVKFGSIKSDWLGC
Protocol: (§1) The objective of this test is to evaluate the inhibitory capacity of a product on the enzymatic activity of MMP-2 and MMP-9. This test is based on an enzymatic reaction between purified MMP-2 or MMP-9 and a specific substrate containing a chromophore. The degradation of the chromogenic substrate by the enzyme leads to the production of fluorescence monitored by fluorimetry.
(§2) (ii)—A human recombinant MMP-2 (CALBIOCHEM, PF023) is incubated, at 0.1 μg/ml, in the presence of the product and the chromogenic substrate, DQ-gelatin conjugated with fluorescein (MOLECULAR PROBE, D12054) at 10 μg/ml. The reaction mixture is incubated overnight at room temperature, protected from light. The quantity of DQ-gelatin degraded is measured by fluorescence (Ex: 355 nm; Em: 460 nm).
(§3) The reactivity of the enzymatic system is systematically monitored for the measurement of the effect of a metalloproteinase inhibitor, 1,10-phenanthroline. The results are presented in the following table, as a percentage inhibition of the enzymatic activity of MMP-2 and MMP-9 relative to the control.

[2] = molecular target: T2, human recombinant MMP-9 (Homo sapiens, UniProt P14780); test: Measurement of the activity of metalloproteinase MMP-9 (DQ-gelatin fluorescence); type: biochemical; details: incubation concentration 0.0018 % DE; relative to the control
T2 construct: purchased CALBIOCHEM PF024
T2 sequence (P14780 107-707 limits assumed): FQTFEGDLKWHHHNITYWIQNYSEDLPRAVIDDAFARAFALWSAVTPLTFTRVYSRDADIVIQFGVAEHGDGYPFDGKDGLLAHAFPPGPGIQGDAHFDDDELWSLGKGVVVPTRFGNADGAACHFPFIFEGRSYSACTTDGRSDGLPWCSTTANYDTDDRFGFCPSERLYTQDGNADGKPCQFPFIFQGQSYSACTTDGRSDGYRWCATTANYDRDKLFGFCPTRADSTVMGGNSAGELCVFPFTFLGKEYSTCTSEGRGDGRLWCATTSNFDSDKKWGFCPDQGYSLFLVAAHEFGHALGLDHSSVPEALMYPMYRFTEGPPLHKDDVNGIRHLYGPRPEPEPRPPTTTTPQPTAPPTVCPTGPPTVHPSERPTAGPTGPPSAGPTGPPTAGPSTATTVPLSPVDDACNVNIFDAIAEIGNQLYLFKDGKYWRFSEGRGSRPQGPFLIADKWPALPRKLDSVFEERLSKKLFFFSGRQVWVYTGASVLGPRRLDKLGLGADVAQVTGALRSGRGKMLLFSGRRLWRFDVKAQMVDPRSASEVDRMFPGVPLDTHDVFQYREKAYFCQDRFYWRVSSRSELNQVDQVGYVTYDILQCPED
Protocol: as §1
as §2, with “(i)—A” for “(ii)—A”, “MMP-9” for “MMP-2”, “PF024)” for “PF023)”, “0.05” for “0.1”
as §3

[3] = molecular target: T3, α2-adrenergic receptors (Homo sapiens, UniProt P08913); test: Involvement of α2-adrenergic receptors in lipolytic activity: fatty acid assay in human adipocytes with brimonidine; type: cell-based
T3 construct: adrenergic receptors found at the surface of the adipocytes; endogenous in cells; host or cells: human adipocytes from subcutaneous abdominal adipose tissue of women
T3 sequence (P08913 1-465): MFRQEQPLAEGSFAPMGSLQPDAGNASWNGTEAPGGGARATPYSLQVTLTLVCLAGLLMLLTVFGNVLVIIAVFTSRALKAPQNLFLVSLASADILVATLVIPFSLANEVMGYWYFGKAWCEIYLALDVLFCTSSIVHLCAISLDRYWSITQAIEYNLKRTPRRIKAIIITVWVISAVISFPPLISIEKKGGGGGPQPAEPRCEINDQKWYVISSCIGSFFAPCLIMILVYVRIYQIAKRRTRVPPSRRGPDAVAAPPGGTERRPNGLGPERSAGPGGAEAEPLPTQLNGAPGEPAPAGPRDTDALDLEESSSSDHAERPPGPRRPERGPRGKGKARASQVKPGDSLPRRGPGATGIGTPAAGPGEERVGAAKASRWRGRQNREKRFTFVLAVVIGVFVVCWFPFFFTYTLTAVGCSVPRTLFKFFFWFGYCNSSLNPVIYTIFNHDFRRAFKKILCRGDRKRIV
Excerpt: It involves determining, in an “in vitro” model of isolated human adipocytes, the involvement of the α2- and/or β-adrenergic receptors on the lipolytic activity of the test product. Lipolysis is indeed under the control of the adrenergic receptors found at the surface of the adipocytes. Two types of receptors coexist:
A lipolytic product can call into play these receptors either by stimulating the β-adrenergic receptors (agonist), or by inhibiting the α2-adrenergic receptors (antagonist). The method described consists in incubating the product in the presence of human adipocytes in suspension, followed by the measurement of the lipolytic activity by assaying fatty acids. The adipocytes are incubated in the presence of pharmacological agents, α2-adrenergic agonists or β-adrenergic antagonists, known to inhibit lipolysis. The trial consists in studying the effect of the product on the inhibition of lipolysis induced by these pharmacological agents.
The test is carried out using human adipocytes isolated and prepared as a cellular suspension. The adipocytes are isolated from the subcutaneous abdominal adipose tissue recovered during plastic surgery operations (abdominal plastic surgery operations) performed on women. The cells are isolated from fresh tissue. To isolate the cells, the adipose tissue is isolated and dissociated by the action of a collagenase (SIGMA™, 1 mg/ml, 30 minutes at 37° C., gentle stirring). Collagenase digests the connective tissue present in the adipose tissue. […]
The product is incubated with the cells in suspension for two hours at 37° C. (250 μl of product+250 μl of adipocyte suspension). in the presence of an α2-adrenergic agonist: brimonidine at 10^−9 M (concentration previously determined to inhibit basal lipolysis by about 50%), and The supernatant media are collected. […]

[4] = molecular target: T4, hyaluronidase (SIGMA), purified from bovine testicles (Bos taurus, UniProt Q2YDK3); test: Measurement of the activity of hyaluronidase (purified enzyme); type: biochemical; details: hyaluronidase test, 60 minutes at 37° C.
T4 construct: purified from bovine testicles; purchased SIGMA; host or cells: bovine testicles
T4 sequence (Q2YDK3 36-553): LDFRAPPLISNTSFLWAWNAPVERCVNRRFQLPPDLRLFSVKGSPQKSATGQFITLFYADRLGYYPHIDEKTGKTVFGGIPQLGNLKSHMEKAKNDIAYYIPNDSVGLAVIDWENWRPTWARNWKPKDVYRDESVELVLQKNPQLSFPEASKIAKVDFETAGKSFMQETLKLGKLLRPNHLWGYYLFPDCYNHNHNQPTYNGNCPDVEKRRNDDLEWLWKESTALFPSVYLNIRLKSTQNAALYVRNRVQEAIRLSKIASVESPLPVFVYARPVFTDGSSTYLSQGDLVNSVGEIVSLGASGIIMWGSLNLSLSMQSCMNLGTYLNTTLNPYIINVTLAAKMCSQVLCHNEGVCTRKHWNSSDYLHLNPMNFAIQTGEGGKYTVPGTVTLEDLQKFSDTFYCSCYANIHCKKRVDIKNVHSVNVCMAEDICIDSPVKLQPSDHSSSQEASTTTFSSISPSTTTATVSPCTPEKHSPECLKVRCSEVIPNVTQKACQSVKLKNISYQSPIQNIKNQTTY
Protocol: The objective of this test is to measure the activity of hyaluronidase. This enzyme, which is naturally found in the skin, degrades hyaluronic acid. The study is carried out in vitro on the purified enzyme.
The hyaluronidase (SIGMA), purified from bovine testicles, is incubated at 0.01 U/ml in the presence of hyaluronic acid at 0.02 mg/ml, with or without test product. The incubation is carried out for 60 minutes at 37° C.
Evaluation of the effects: After the incubation, the hyaluronic acid not degraded by the enzyme is precipitated by a 24 mM sodium acetate/79. mM acetic acid mixture (10 minutes, room temperature). The precipitate is measured by spectrophotometry at 590 nm.
The effect of the test products is compared to that observed in the presence of dipotassium glycyrrhizinate, a reference hyaluronidase inhibitor.

[5] = tested on: β-adrenergic receptors; test: Involvement of β-adrenergic receptors in lipolytic activity: fatty acid assay in human adipocytes with propranolol; type: cell-based
Protocol: The supernatant media are collected. The nonesterified fatty acids are assayed by spectrophotometry with the aid of a commercial kit in these supernatant media (NEFA C kit, WAKO). The assay is performed against a fatty acid calibration series.
for the inhibition induced by the β-adrenergic antagonist, by the use of a β-adrenergic agonist, isoprenaline.

[6] = tested on: human adipocytes; test: Assay of the free fatty acids (lipolytic activity) in isolated human adipocytes in suspension; type: cell-based; details: for Free fatty acid concentration: 2 h at 37° C., mean of five assays
Excerpt: Hydrolysis of the triglycerides to nonesterified fatty acids and glycerol is called lipolysis. Triglycerides are stored in the adipocytes and constitute the fat reserve. For this reserve to diminish, which is the desired aim when slimming products are used, the triglycerides should be hydrolysed in the form of fatty acids, which in their case can be removed from the cell. Hydrolysis of the triglycerides calls into play a hormone-dependent lipase which must be phosphorylated in order to be active. The phosphorylation step uses a kinase and cAMP. An increase in the cAMP content of the adipocytes is necessary for promoting the activity of the lipase and therefore the lipolysis. The method described consists in incubating the products in the presence of human adipocytes in suspension, followed by […].
The test is carried out using human adipocytes isolated and prepared as a cellular suspension. The adipocytes are isolated from the subcutaneous abdominal adipose tissue recovered during plastic surgery operations (abdominal plastic surgery operations) performed on women. The cells are isolated from fresh tissue. The adipose tissue is isolated and dissociated by the action of a collagenase (SIGMA™, 1 mg/ml, 30 minutes at 37° C., gentle stirring). Collagenase digests the connective tissue present in the adipose tissue. After digestion, the cells are filtered and washed in an appropriate culture medium containing MEM medium free of phenol red, free of glutamine (SIGMA)+2.2 mg/ml of sodium bicarbonate (GIBCO)+50 IU of penicillin (BIOWHITTAKER™)+50 μg/ml of streptomycin (BIOWHITTAKER™)+1% (v/v) of L-glutamine (BIOWHITTAKER™)+0.5% of lipid-free serum albumin (SIGMA™). The adipocyte suspension is used immediately after its preparation.
The test products are diluted in the adipocyte culture medium. They are incubated with the cells in suspension for two hours at 37° C. (250 μl of product+250 μl of adipocyte suspension).
After the incubation, the cell lysis is checked visually by the presence of a lipid layer at the surface of the cellular suspension. The supernatant media are collected. The free fatty acids are assayed by spectrophotometry using a commercial kit (NEFA™ C kit, WAKO), with reference to a fatty acid calibration series. The lypolytic activity of the products is evaluated relative to a control group incubated in the presence of adipocytes and in the absence of product. […] Five assays are performed for each of the test products which are as follows:
This assay is repeated by carrying out new assays at different concentrations.

[7] = incubation concentration 0.0001 wt % DE
[8] = incubation concentration 0.0010 wt % DE

SMILES: c1cnc2c(c1)ccc1cccnc12 [1,10-Phenanthroline, 1,10-phenanthroline]
MMP-2 inhibiting effect [1]: 25% | MMP-9 inhibiting effect [2]: 75%

SMILES: Brc1c(NC2=NCCN2)ccc2nccnc12 [Brimonidine, brimonidine]
Assay of the nonesterified fatty acids in the supernatant (% relative to the control) ([3]; 10^−9 M, alone): 0% | inhibition at 0.001 µM ([3]; read-out: inhibition of basal lipolysis): ~50%

Percentage inhibition of hyaluronidase activity ([4]; incubation concentration 0.001 % DE): 20% | Percentage inhibition of hyaluronidase activity ([4]; incubation concentration 0.1 % DE): 45%
SMILES: CC1(C)[C@@H](O[C@H]2O[C@H](C(=O)[O-])[C@@H](O)[C@H](O)[C@H]2O[C@@H]2O[C@H](C(=O)[O-])[C@@H](O)[C@H](O)[C@H]2O)CC[C@]2(C)[C@H]3C(=O)C=C4[C@@H]5C[C@@](C)(C(=O)O)CC[C@]5(C)CC[C@@]4(C)[C@]3(C)CC[C@@H]12.[K+].[K+] [Di K glycyrrhizinate, dipotassium glycyrrhizinate]

SMILES: CC(C)NCC(O)c1ccc(O)c(O)c1 (centres unmarked) [Isoprenaline, isoprenaline]
Assay of the nonesterified fatty acids in the supernatant (% relative to the control) ([5]; 10^−5 M + propanolol 10^−7 M): 170%

SMILES: CCCCCCCCCCCC(=O)N(C)CC(=O)O [N-Lauroylsarcosine]
Free fatty acid concentration [6, 7]: 26.32 ± 0.68 µM | Lipolytic activity (compared with the control = 100) [6, 7]: 228 | Free fatty acid concentration [6, 8]: 28.82 ± 6.11 µM | Lipolytic activity (compared with the control = 100) [6, 8]: 250

Assay of the nonesterified fatty acids in the supernatant (% relative to the control) ([3]; 10^−7 M + brimonidine 10^−9 M): 79%
SMILES: Cc1ccc(N(CC2=NCCN2)c2cccc(O)c2)cc1 [Phentolamine, phentolamine]

Assay of the nonesterified fatty acids in the supernatant (% relative to the control) ([5]; 10^−7 M, alone): 86% | inhibition of basal lipolysis ([5]; at 10^−7 M, concentration previously determined): about 50%
SMILES: CC(C)NCC(O)COc1cccc2ccccc12 (centres unmarked) [Propanolol, propranolol]

From patent US20040166079A1, “N-Lauroyl amino acid composition for slimming the human body” (priority 2003, published 2004)
